{"source": "patent US20230295165A1", "about": "“COMPOUNDS” (The Provost, Fellows, Foundation Scholars, and the other …, priority 2020, published 2023)"}
{"biological_target": "T1, queuine-tRNA ribosyltransferase enzyme complex (hQTRT1:hQTRT2) (Homo sapiens, UniProt Q9BXR0)", "T1 construct": "polyhistidine tag (N); made in house; host or cells: E. coli BL21(DE3) tgt::Kmr", "T1 sequence (Q9BXR0 whole entry)": "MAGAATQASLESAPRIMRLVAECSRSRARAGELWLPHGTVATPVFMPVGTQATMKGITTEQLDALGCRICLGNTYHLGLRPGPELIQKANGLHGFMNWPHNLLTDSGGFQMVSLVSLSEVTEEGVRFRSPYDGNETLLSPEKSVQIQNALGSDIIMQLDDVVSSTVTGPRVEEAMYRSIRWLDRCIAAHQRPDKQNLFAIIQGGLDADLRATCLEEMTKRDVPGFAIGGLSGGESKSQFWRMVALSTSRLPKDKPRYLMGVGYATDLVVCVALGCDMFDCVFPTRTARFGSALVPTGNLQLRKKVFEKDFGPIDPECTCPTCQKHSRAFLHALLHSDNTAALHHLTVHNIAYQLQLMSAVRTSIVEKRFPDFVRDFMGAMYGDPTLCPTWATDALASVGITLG", "T1 sequence (Q9H974 whole entry partner)": "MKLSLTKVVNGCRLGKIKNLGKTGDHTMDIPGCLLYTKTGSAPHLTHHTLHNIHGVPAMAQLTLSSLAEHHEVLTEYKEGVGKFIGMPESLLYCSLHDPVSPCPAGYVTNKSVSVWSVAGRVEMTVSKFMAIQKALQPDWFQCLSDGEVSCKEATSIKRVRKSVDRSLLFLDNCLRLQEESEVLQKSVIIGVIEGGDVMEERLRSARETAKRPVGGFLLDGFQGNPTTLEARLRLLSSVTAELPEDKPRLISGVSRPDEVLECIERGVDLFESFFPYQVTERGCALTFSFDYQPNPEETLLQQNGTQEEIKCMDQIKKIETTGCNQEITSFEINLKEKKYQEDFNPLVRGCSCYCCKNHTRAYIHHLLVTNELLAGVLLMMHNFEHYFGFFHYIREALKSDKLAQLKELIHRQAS", "assay": "[8-14C] guanine displacement assay (tRNA*)", "assay_type": "biochemical", "conditions": "50 μM compound, 100 nM hQTRT1:hQTRT2, 30 mins at 37° C.; background ≤2%; ≥5% counts as positive substrate for TGT", "experimental": "Compounds capable of acting as a queuine-tRNA ribosyltransferase enzyme complex substrate may be identified by use of a displacement assay as described below:\nProduction of [8-^14C] Guanine Labeled tRNA (tRNA*)\nBefore adding the 8-[^14C] guanine solution to the reaction the solution was neutralised with an equal volume (vol/vol) 0.01 M NaOH, as the [8-^14C] Guanine is supplied in 0.01 M HCl aqueous solution. In vitro synthesised human tyrosyl tRNA was prepared by T7 transcription in ultrapure nuclease-free water as described previously (Alqasem et al., 2020). Recombinant human QTRT1 enzyme containing an N-terminalpolyhistidine tag and human QTRT2 containing a C-terminal TEV-Strep-Tag®II tag were produced in BL21(DE3) tgt::Kmr cells as described previously (Alqasem et al., 2020).\nThe reaction was incubated for 1 hour at 37° C. […] The tRNA* pellet was resuspended in 30 μL nuclease-free water and the concentration measured spectrophotometrically at A260. […]\nAfter 30 mins the reactions were quenched by mixing with 2.5 ml ice-cold 10% trichloroacetic acid (TCA) and placed on ice for one hour to precipitate the tRNA. […] The vacuum manifold was disassembled, the filters recovered and dried again at room temperature before being placed in scintillation vials containing 10 ml of Ecoscint A and radioactivity levels measured by scintillation counting. […]", "units": {"displacement of the [14C] guanine": "%"}}
{"smiles": "Nc1nc2[nH]cc(CN[C@H]3C=C[C@H](O)[C@@H]3O)c2c(=O)[nH]1", "note": "[queuine base, queuine]", "displacement of the [14C] guanine": "> 98"}
{"system": "RA synovial primary fibroblasts (RASFCs)", "assay": "Synovial fibroblast assay, IL-6 ELISA on TNF-treated RASFC supernatants", "assay_type": "cell-based, human", "conditions": "200 μm compound, TNF 10 ng/ml, supernatants at 72 hr, n=3 RASFCs, DMSO vehicle = 100%", "experimental": "To assess the compounds in human rheumatoid arthritis samples the following protocol was employed:\nIsolation of Primary Fibroblasts (RASFCs): RA synovial biopsies were digested with 1 mg/ml collagenase type 1 (Worthington Biochemical, Freehold, NJ, USA) in RPMI-1640 (Gibco-BRL, Paisley, UK) for 4 hr at 37° C. in humidified air with 5% CO2. Dissociated cells were grown to confluence in RPMI 1640, 10% FCS (Gibco-BRL), 10 ml of 1 mmol/l HEPES (Gibco-BRL), penicillin (100 units/ml; Bioscience), streptomycin (100 units/ml; Bioscience) and fungizone (0.25 μg/ml; Bioscience) before passaging. Cells were used between passages 3-8.\nCompounds (200 μm) were Tested on n=3 RASFCs\nRASFCs were grown to 80% confluency in 48 well plates. RASFCs were treated with TNF (10 ng/ml) in the presence of 200 μm of each compound. Media was replaced after 24 h and fresh media and compound was added. Cell supernatants were collected at 72 hr time point. DMSO treated cells were used as a vehicle control (Red dotted line represents DMSO control). IL-6 ELISA: Levels of pro-inflammatory cytokine IL6 were measured in cultured RASFC supernatants by specific ELISA (R&D systems, UK) according to manufacturer's conditions.\nThis assay measures the production of IL-6 as an indication of immune system activation: the lower the value the better from the point of view of alleviating RA symptoms. All compounds of the invention show an effect compared to the DMSO vehicle that represents no treatment. […]"}
{"smiles": "CC(C)(CCNCc1c[nH]c2nc(N)[nH]c(=O)c12)c1ccccc1.Cl", "note": "[Example 1, N-((2-amino-4-oxo-4,7-dihydro-3H-pyrrolo[2,3-d]pyrimidin-5-yl)methyl)-3-methyl-3-phenylbutan-1-ammonium chloride]", "Level of IL6 expression compared to vehicle": "Reduction to 37%"}
{"smiles": "Cl.Nc1nc2[nH]cc(CNCCNc3ccccc3)c2c(=O)[nH]1", "note": "[Example 5, N-((2-amino-4-oxo-4,7-dihydro-3H-pyrrolo[2,3-d]pyrimidin-5-yl)methyl)-2-(phenylamino)ethan-1-aminium chloride]", "Level of IL6 expression compared to vehicle": "Reduction to 48%"}
{"smiles": "Cl.Nc1nc2[nH]cc(CNCCC(=O)c3ccccc3)c2c(=O)[nH]1", "note": "[Example 7, N-((2-amino-4-oxo-4,7-dihydro-3H-pyrrolo[2,3-d]pyrimidin-5-yl)methyl)-3-oxo-3-phenylpropan-1-ammonium chloride]", "Level of IL6 expression compared to vehicle": "Reduction to 32%"}
{"smiles": "Cl.Nc1nc2[nH]cc(CNCCC(c3ccccc3)c3ccccc3)c2c(=O)[nH]1", "note": "[Example 10, N-((2-amino-4-oxo-4,7-dihydro-3H-pyrrolo[2,3-d]pyrimidin-5-yl)methyl)-3,3-diphenylpropan-1-ammonium chloride]", "Level of IL6 expression compared to vehicle": "Reduction to 56%"}
{"smiles": "Cl.Nc1nc2[nH]cc(CNCC[C@@H](O)c3ccccc3)c2c(=O)[nH]1", "note": "[Example 12, (R)-N-((2-amino-4-oxo-4,7-dihydro-3H-pyrrolo[2,3-d]pyrimidin-5-yl)methyl)-3-hydroxy-3-phenylpropan-1-aminium chloride]", "Level of IL6 expression compared to vehicle": "Reduction to 55%"}
{"smiles": "Cl.Nc1nc2[nH]cc(CNCC[C@H](O)c3ccccc3)c2c(=O)[nH]1", "note": "[Example 13, (S)-N-((2-amino-4-oxo-4,7-dihydro-3H-pyrrolo[2,3-d]pyrimidin-5-yl)methyl)-3-hydroxy-3-phenylpropan-1-aminium chloride]", "Level of IL6 expression compared to vehicle": "Reduction to 67%"}
{"smiles": "C[C@@H]1CCN(C(=O)CC#N)C[C@@H]1N(C)c1ncnc2[nH]ccc12", "note": "[Positive control (Tofacitinib), Tofacitinib, reference compound]", "Level of IL6 expression compared to vehicle": "Reduction to 57%"}
